This passage reports Ki results from patent US9399636B2, “Substituted dipyridylamines and uses thereof” (Genentech, Inc., priority 2012, dated 2016).

Usually Ki stands for the dissociation constant of the complex between target and ligand, obtained from inhibition or displacement. High values mean lower affinity, low ones higher affinity.

This test addresses T1, DLK (Homo sapiens, UniProt Q12852).
T1 construct: N-terminally GST-tagged DLK (catalytic domain amino acid 1-520) (Carna Bioscience); GST (N); purchased Carna Bioscience
T1 sequence (Q12852 1-520): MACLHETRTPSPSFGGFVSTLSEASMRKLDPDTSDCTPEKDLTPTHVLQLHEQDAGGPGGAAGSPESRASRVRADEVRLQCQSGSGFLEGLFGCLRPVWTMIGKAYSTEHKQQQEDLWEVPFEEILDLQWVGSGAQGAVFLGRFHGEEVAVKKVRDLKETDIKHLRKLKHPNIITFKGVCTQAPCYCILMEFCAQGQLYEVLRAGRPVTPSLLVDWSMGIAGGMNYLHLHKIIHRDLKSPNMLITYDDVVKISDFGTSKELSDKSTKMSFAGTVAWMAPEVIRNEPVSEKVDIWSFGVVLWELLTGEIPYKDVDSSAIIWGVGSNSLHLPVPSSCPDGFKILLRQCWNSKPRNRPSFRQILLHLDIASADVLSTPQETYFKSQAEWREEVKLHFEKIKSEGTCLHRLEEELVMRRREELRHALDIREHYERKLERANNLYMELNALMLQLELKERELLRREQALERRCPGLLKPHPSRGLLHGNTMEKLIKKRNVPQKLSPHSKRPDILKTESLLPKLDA
As to the kind of experiment: DLK TR-FRET assay. The format is biochemical. The following applies: 5 nM GST-tagged DLK (catalytic domain amino acid 1-520), 40 nM HIS-tagged MKK4 K131M substrate, 30 μM ATP, 60 minutes. How it is done:
DLK TR-FRET assay: DLK kinase reactions (20 μL) containing 5 nM N-terminally GST-tagged DLK (catalytic domain amino acid 1-520) (Carna Bioscience), 40 nM N-terminally HIS-tagged MKK4 K131M substrate, and 30 μM ATP in kinase reaction buffer (50 mM HEPES, pH 7.5, 0.01% Triton X-100, 0.01% Bovine γ-Globulins, 2 mM DTT, 10 mM MgCl2 and 1 mM EGTA), and testing compound 1:3 serial diluted starting at 20 uM were incubated at ambient temperature for 60 minutes in 384 well OptiPlate (Perkin Elmer). To quench kinase reactions and detect phosphorylated MKK4, 15 μL of TR-FRET antibody mixture containing 2 nM anti-phosphorylated MKK4 labeled with Europium cryptate (Cisbio) and 23 nM anti-HIS labeled with D2 (Cisbio) in detection buffer (25 mM Tris pH 7.5, 100 mM NaCl, 100 mM EDTA, 0.01% Tween-20, and 200 mM KF) was added to the reaction mixture. The detection mixture was incubated for 3 hours at ambient temperature and the TR-FRET was detected with an EnVision multilabel plate reader (Perkin-Elmer) using the LANCE/DELFIA Dual Enh label from Perkin-Elmer (excitation filter: UV2 (TRF) 320 and emission filters: APC 665 and Europium 615).
(In TR-FRET formats the signal depends on donor and acceptor labels being close together.)

`CCCCOc1cc(C2CCN(C3COC3)CC2)cc(Nc2cc(C(F)F)ccn2)n1` [Example 43, (6-Butoxy-1′-oxetan-3-yl-1′,2′,3′,4′,5′,6′-hexahydro-[4,4′]bipyridinyl-2-yl)-(4-difluoro-methyl-pyridin-2-yl)-amine] came in with a Ki of 3.8 nM.
For `FC1CN(c2cc(C3CCN(C4COC4)CC3)cc(Nc3cc(C(F)F)ccn3)n2)C1` [Example 44, (4-Difluoromethyl-pyridin-2-yl)-[6-(3-fluoro-azetidin-1-yl)-1′-oxetan-3-yl-1′,2′,3′,4′,5′,6′-hexahydro-[4,4′]bipyridinyl-2-yl]-amine] the value was 6.8 nM; for `CC(C)(C)OC(=O)N1CC(c2cc(Cl)nc(Nc3cc(C(F)F)ccn3)c2)C1` [Example 45, 3-[2-Chloro-6-(4-difluoromethyl-pyridin-2-ylamino)-pyridin-4-yl]-azetidine-1-carboxylic acid tert-butyl ester], 48 nM.
For `N#Cc1ccnc(Nc2cc(C3(C#N)CCOCC3)cc(N3CC(F)C3)n2)c1` [Example 46, 2-[4-(4-Cyano-tetrahydro-pyran-4-yl)-6-(3-fluoro-azetidin-1-yl)-pyridin-2-ylamino]-isonicotinonitrile] the value was 13 nM; for `N#Cc1ccnc(Nc2cc(C3(C#N)CCOCC3)cc(N3CCCC3=O)n2)c1` [Example 47, 2-[4-(4-Cyano-tetrahydro-pyran-4-yl)-6-(2-oxo-pyrrolidin-1-yl)-pyridin-2-ylamino]-isonicotinonitrile], 40 nM; for `COC1CN(c2cc(C3CCN(C4COC4)CC3)cc(Nc3cc(C(F)F)ccn3)n2)C1` [Example 48, (4-Difluoromethyl-pyridin-2-yl)-[6-(3-methoxy-azetidin-1-yl)-1′-oxetan-3-yl-1′,2′,3′,4′,5′,6′-hexahydro-[4,4′]bipyridinyl-2-yl]-amine], 21 nM.
`N#CC1(c2cc(Nc3cc(C(F)F)ccn3)nc(N3CCCC3=O)c2)CCOCC1` [Example 49, 4-[2-(4-Difluoromethyl-pyridin-2-ylamino)-6-(2-oxo-pyrrolidin-1-yl)-pyridin-4-yl]-tetrahydro-pyran-4-carbonitrile] registered a Ki of 19 nM.
For `FC(F)c1ccnc(Nc2cc(C3CCN(C4COC4)CC3)cc(N3CC4CC4C3)n2)c1` (stereo not shown) [Example 50, [6-(3-Aza-bicyclo[3.1.0]hex-3-yl)-1′-oxetan-3-yl-1′,2′,3′,4′,5′,6′-hexahydro-[4,4′]bipyridinyl-2-yl]-(4-difluoromethyl-pyridin-2-yl)-amine] the value was 1 nM; for `FC(F)c1ccnc(Nc2cc(C3CCN(C4COC4)CC3)cc(N3CCC3)n2)c1` [Example 51, (6-Azetidin-1-yl-1′-oxetan-3-yl-1′,2′,3′,4′,5′,6′-hexahydro-[4,4′]bipyridinyl-2-yl)-(4-difluoromethyl-pyridin-2-yl)-amine], 2.4 nM.
`N#CC1(c2cc(Nc3cc(C(F)F)ccn3)nc(N3CC4CC4C3)c2)CCOCC1` (stereo not shown) [Example 52, 4-[2-(3-Aza-bicyclo[3.1.0]hex-3-yl)-6-(4-difluoromethyl-pyridin-2-ylamino)-pyridin-4-yl]-tetrahydro-pyran-4-carbonitrile] had a Ki of 2 nM.
For `N#CC1(c2cc(Nc3cc(C(F)F)ccn3)nc(N3CCC3)c2)CCOCC1` [Example 53, 4-[2-Azetidin-1-yl-6-(4-difluoro-methyl-pyridin-2-ylamino)-pyridin-4-yl]-tetrahydro-pyran-4-carbonitrile] the value was 24 nM; for `COC1CN(c2cc(C3(C#N)CCOCC3)cc(Nc3cc(C(F)F)ccn3)n2)C1` [Example 54, 4-[2-(4-Difluoromethyl-pyridin-2-ylamino)-6-(3-methoxy-azetidin-1-yl)-pyridin-4-yl]-tetrahydro-pyran-4-carbonitrile], 21 nM; for `N#CC1(c2cc(Nc3cc(C(F)F)ccn3)nc(N3CC(F)C3)c2)CCOCC1` [Example 55, 4-[2-(4-Difluoromethyl-pyridin-2-ylamino)-6-(3-fluoro-azetidin-1-yl)-pyridin-4-yl]-tetrahydro-pyran-4-carbonitrile], 8.9 nM.
